Active and inactive are the calls of the source.
Key:
[1] = target: Metabotropic glutamate receptor 7 (Homo sapiens, UniProt Q14831); assay: mGlu7 positive allosteric modulators, dose response, cell-based, calcium mobilization, Galpha15 (AID 743384); format: functional
[2] = Late stage assay provider results from the probe development effort to identify inhibitors of the Plasmodium falciparum M18 Aspartyl Aminopeptidase (M18AAP): radiolabel-based cell-based dose response assay to identify compounds that inhibit P. falciparum growth in RBCs, Set 2..; format: functional
[3] = Concentration-dependent survival of SW480 colon cancer line, luminescence detection with CellTiter-Glo, half-maximal inhibitory concentration (AID 1117338); format: functional
[4] = SNU-C1 cell viability reduction, dose response, CellTiter-Glo luminescence (AID 1117323); format: functional, cell-based
[5] = cytotoxicity toward Colo320 cells – cell-based, CellTiter-Glo luminescence, IC50, dose response (AID 1117334); format: functional; conditions: COLO 320
[6] = RKO cell viability reduction, dose response, CellTiter-Glo luminescence (AID 1117322); format: functional
[7] = cytotoxicity toward HCT116 cells – cell-based, CellTiter-Glo luminescence, IC50, dose response (AID 1117332); format: functional; conditions: HCT-116
[8] = HCT116 cell viability decrease, GSK3B pretreatment – CellTiter-Glo, IC50, dose response (AID 1117339); format: functional; conditions: HCT-116
[9] = CellTiter-Glo luminescent dose response of DLD-1 viability loss (AID 1117352); format: functional
[10] = cytotoxicity toward HT-29 cells – cell-based, CellTiter-Glo luminescence, IC50, dose response (AID 1117330); format: functional
[11] = cytotoxicity dependent on PAX8, dose response, cell-based, plate reader, dry powder (AID 743049); format: functional
[12] = PAX5 activity inhibitors, dose response, selectivity assay for PAX8 inhibitor project, cell-based, plate reader, dry powder samples (AID 743047); format: functional;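 also: HEK293 cells carrying a Pax5 driven CD19 promoter luciferase reporter; potency of inhibitors that lower reporter luminescence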
[13] = PAX2 cell-based inhibition, dose response, selectivity assay for PAX8 inhibitor project, plate reader, dry powder samples (AID 743048); format: functional;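 also: HEK293 cells carrying a WT1 promoter luciferase reporter driven by expressed Pax2; potency is for inhibition of Pax2 driven reporter signal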
[14] = cytotoxicity in OVCAR8 ovarian cancer cells, dose response, PAX8 project, cell-based, plate reader, dry powder samples (AID 743197); format: functional; conditions: OVCAR-8
[15] = target: Paired box protein Pax-8 (Homo sapiens, UniProt Q06710); assay: inhibitors of PAX8-driven TPO luciferase reporter, dose response, RMG-I cells, cherry-pick (AID 687027); format: functional, cell-based;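 also: luciferase reporter driven by Pax8 target thyroperoxidase promoter measured by SteadyGlo luminescence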
[16] = cytotoxicity in COV434 cells, dose response, cytotoxicity control for PAX8 inhibitor project, cell-based, plate reader, dry powder, SA7 (AID 743145); format: functional
[17] = target: fMet-Leu-Phe receptor (Homo sapiens, UniProt P21462); assay: FPR ligands, dose response (AID 519); format: functional
[18] = cells; conditions: HEK293
[19] = human group III sPLA2 inhibitors, dose response, biochemical, QFRET, IC50 (AID 743457);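 also: green fluorescence rise as the enzyme cleaves BODIPY PC-A2 in liposomes; potency for inhibition of the enzyme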
[20] = SK-MEL-5 parental line viability, dose response, MITF inhibitor project, cell-based, CellTiter-Glo, dry powder, set 6 (AID 624429); format: functional
[21] = MITF Orthogonal Assay: SK-MEL-5 CTG Assay Measured in Cell-Based System Using Plate Reader - 2084-02_Inhibitor_Dose_DryPowder_Activity_Set5.; format: functional
[22] = A375 melanoma cell cytotoxicity, dose response, counter-screen for MITF inhibitor project, CellTiter-Glo luminescence, dry powder, set 7 (AID 624490); format: functional, cell-based; conditions: A-375
[23] = MITF Measured in Cell-Based System Using Plate Reader - 2084-01_Inhibitor_Dose_DryPowder_Activity_Set7.; format: functional
[24] = MITF Measured in Cell-Based System Using Plate Reader - 2084-01_Inhibitor_Dose_DryPowder_Activity_Set6.; format: functional
[25] = A2780 ovarian cancer cell cytotoxicity, dose response, cytotoxicity control, plate reader, dry powder samples (AID 743046); format: functional, cell-based
[26] = system: HEK293; assay: HEK293T cell cytotoxicity, dose response, cytotoxicity control, ATP luminescence, cherry-pick samples (AID 687005); format: functional, cell-based; conditions: Homo sapiens;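 also: cells exposed to compound for 48 hours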
[27] = HEK293 Cytotoxicity Assay Measured in Cell-Based System Using Plate Reader - 7071-01_Inhibitor_Dose_CherryPick_Activity_Set2.; format: functional
[28] = system: HeLa; assay: HeLa cell cytotoxicity, dose response, cytotoxicity control, ATP luminescence, cherry-pick samples (AID 687004); format: functional, cell-based; conditions: Homo sapiens
[29] = HepG2 cell cytotoxicity, dose response, cytotoxicity control, plate reader, dry powder samples (AID 1159569); format: functional, cell-based;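 also: inhibitor potency with signal falling toward the positive control level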
[30] = P. falciparum Dd2 growth inhibitors, dose response, SYBR Green, dry powder samples (AID 1159566); format: functional, cell-based;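 also: potency for growth inhibition with lower SYBR green DNA signal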
[31] = Plasmodium falciparum Dd2 Sybr green parasite growth Measured in Cell-Based and Microorganism Combination System Using Plate Reader - 2153-01_Inhibitor_Dose_DryPowder_Activity_Set3.; format: functional
[32] = P. falciparum Dd2 growth inhibitors, dose response, SYBR Green, cherry-picked samples (AID 1159567); format: functional, cell-based
[33] = P. falciparum 3D7-ScDHODH growth inhibitors, dose response, SYBR Green, dry powder samples (AID 1159570); format: functional, cell-based;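 also: parasite growth measured after 72 hours of compound exposure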
[34] = P. falciparum ATP4 D1247Y mutant growth inhibitors, dose response, NITD609-resistant line, SYBR Green, dry powder (AID 1159571); format: functional, cell-based;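 also: parasites synchronized at ring stage by sorbitol before testing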
[35] = target: T1, Oxysterols receptor LXR-beta (Homo sapiens, UniProt P55055); format: functional, cell-based;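 also: agonist activity at LXR measured by a cell-based luminescence readout across a dose range, run as a counterscreen for daf-12 agonists; HEK293 cells with Gal4-LXR fusion and GAL4-driven luciferase reporter; potency for activation of Gal4-LXR reporter so compounds are agonists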
T1 sequence (P55055 whole entry): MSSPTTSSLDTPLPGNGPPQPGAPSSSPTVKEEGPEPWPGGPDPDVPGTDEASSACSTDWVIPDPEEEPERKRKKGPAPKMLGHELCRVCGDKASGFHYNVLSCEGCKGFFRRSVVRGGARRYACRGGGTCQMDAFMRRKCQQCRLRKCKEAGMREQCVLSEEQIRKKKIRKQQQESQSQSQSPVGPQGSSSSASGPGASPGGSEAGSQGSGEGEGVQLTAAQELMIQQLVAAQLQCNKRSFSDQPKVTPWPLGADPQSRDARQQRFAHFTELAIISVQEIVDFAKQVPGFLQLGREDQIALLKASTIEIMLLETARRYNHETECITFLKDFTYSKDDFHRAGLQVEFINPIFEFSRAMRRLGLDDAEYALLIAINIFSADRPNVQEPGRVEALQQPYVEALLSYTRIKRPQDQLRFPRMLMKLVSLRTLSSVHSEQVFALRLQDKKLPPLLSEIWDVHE

[36] = cytotoxicity in HeLa cells, dose response, cytotoxicity control, cell-based, plate reader, dry powder (AID 651946); format: functional
[37] = target: RNA-editing ligase 1, mitochondrial (Trypanosoma brucei brucei, UniProt P86926); assay: TbREL1 ligase inhibitors, dose response, biochemical, fluorescence, Trypanosoma brucei (AID 1117295); format: functional
[38] = microbe, parasite or virus in culture; format: functional; conditions: Mycobacterium tuberculosis
[39] = target: T2, Ubiquitin-conjugating enzyme E2 N (Homo sapiens, UniProt P61088); format: functional;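 also: Dose-response confirmation in a TR-FRET assay detecting UBC13-driven polyubiquitin chain formation, inhibition measured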
T2 sequence (P61088 whole entry): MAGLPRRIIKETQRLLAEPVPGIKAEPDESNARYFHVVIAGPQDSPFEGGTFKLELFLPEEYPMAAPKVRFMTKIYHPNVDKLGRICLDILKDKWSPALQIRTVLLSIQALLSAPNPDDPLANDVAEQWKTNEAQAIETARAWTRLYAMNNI

[40] = HEK293T cell cytotoxicity, dose response, cytotoxicity control, plate reader, dry powder, set 10 (AID 743315); format: functional, cell-based; conditions: HEK293
[41] = HepG2 cell cytotoxicity, dose response, cytotoxicity control, ATP luminescence, dry powder, set 2 (AID 743129); format: functional, cell-based
[42] = cells; conditions: A549
[43] = inhibitors of SNCA 5'UTR-driven reporter translation, confirmation, H4 neuroglioma cells, luminescence (AID 1988); format: functional, cell-based
[44] = Luminescence Cell-Based Dose Response HTS to Identify Inhibitors of 5'UTR Stem-Loop Driven Prion Protein mRNA Translation in H4 Neuroglioblastoma Cells. [Related pubchem assays: 1827 (Project Summary), 1813 (Primary HTS)]; format: functional
[45] = inhibitors of firefly luciferase expression or activity, dose response, H4 neuroglioma cells, luminescence (AID 1990); format: functional, cell-based
[46] = target: Major prion protein (Homo sapiens, UniProt P04156); format: functional, cell-based
[47] = cells
[48] = Dose-response inhibition of insulin secretion in a rat insulinoma line at 5 mM glucose (AID 1117331); format: functional, cell-based; conditions: INS-1E
[49] = target: NAD-dependent protein deacylase sirtuin-5, mitochondrial (Homo sapiens, UniProt Q9NXA8); assay: SIRT5 desuccinylase inhibitors, dose response, biochemical, fluorescence imaging, cherry-pick, set 5 (AID 720591);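 also: desuccinylation of succinyl peptide AMC substrate read as fluorescence after trypsin release; potency of inhibitors that lower fluorescence and may act on trypsin instead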
[50] = target: Potassium channel subfamily K member 3 (Homo sapiens, UniProt O14649); assay: TASK1 (KCNK3) potassium channel inhibitors, SAR follow-up, CHO cells, FluxOR thallium flux (AID 652212); format: functional
[51] = target: Potassium channel subfamily K member 9 (Homo sapiens, UniProt Q9NPC2); assay: TASK3 (KCNK9) channel inhibitors, thallium flux, SAR follow-up, selectivity assay for TASK1 inhibitor project, cell-based, FluxOR thallium flux, concentration-response (AID 652211); format: functional;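 also: potency is for inhibitors of the channel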
[52] = Late stage assay provider results from the probe development effort to identify selective inhibitors of heat shock protein 90 (HSP90): Absorbance-based cell proliferation assay in MCF7 cells.; format: functional
[53] = Late stage assay provider results from the probe development effort to identify selective inhibitors of heat shock protein 90 (HSP90): Absorbance-based cell proliferation assay in SKBR3 cells.; format: functional; conditions: SK-BR-3

CC(=O)Nc1ccc(OCC(=O)c2cc(C)n(-c3ccc(OC(F)F)cc3)c2C)cc1
EC50 [1]: 2.4 µM (active)

COc1ccc(CCNc2c3c(nc4ccccc24)CCCC3)cc1OC
IC50 [2]: 16.5 µM (inactive)

CC=CC1C(C(=O)OCc2c(F)c(F)c(COC)c(F)c2F)C1(C)C (stereo not given)
IC50 [3]: > 20 µM (inactive) | IC50 [4]: > 20 µM (inactive) | IC50 [5]: > 20 µM (inactive) | IC50 [6]: > 20 µM (inactive) | IC50 [7]: > 20 µM (inactive) | IC50 [8]: > 20 µM (inactive) | IC50 [9]: > 20 µM (inactive) | IC50 [10]: > 20 µM (inactive)

CCCC#Cc1ccc([C@@H]2[C@@H](C#N)N(S(=O)(=O)c3cccc(F)c3)[C@H]2CO)cc1
AC50 [11]: 37 µM (active) | AC50 [12]: 24.2 µM (active) | AC50 [13]: 28.2 µM (active) | AC50 [14]: 43.1 µM (active) | AC50 [15]: 5.96 µM (active) | AC50 [16]: > 70 µM (inactive)

Cc1ccc(C(=O)C2=C(O)C(=O)N(Cc3ccccc3)C2c2cccnc2)o1 (stereo not given)
Ki [17]: > 66.7 µM (inactive)

Cc1cccn2c(=O)c3cc(C(=O)NCc4ccc(F)cc4)c(=N)n(CCCN4CCOCC4)c3nc12
AC50 [18]: > 52 µM (inactive)

Cc1ccccc1N=C(S)c1nc2ccccc2[nH]1
IC50 [19]: > 122 µM (inactive)

O=C1C(NS(=O)(=O)c2ccccc2)=C(c2ccccc2)C(=O)c2ccccc21
AC50 [20]: 65.6 µM (active) | AC50 [21]: 56.7 µM (active) | AC50 [22]: > 70 µM (inactive) | AC50 [23]: 41 µM (active) | AC50 [24]: 61.4 µM (active)

COc1ccc2c3c(n(C)c2c1)[C@H](CO)N(C(=O)Nc1ccc(F)cc1)CC31CCN(S(=O)(=O)c2cccc(C)c2)CC1
AC50 [14]: 58 µM (active) | AC50 [15]: 7.72 µM (active) | AC50 [25]: 38.8 µM (active)

C[C@H]1CN([C@@H](C)CO)S(=O)(=O)c2ccc(C#Cc3cccc(F)c3)cc2O[C@@H]1CN(C)C(=O)NC1CCCCC1
AC50 [26]: 8.15 µM (active) | AC50 [27]: 8.15 µM (active) | AC50 [28]: 34.4 µM (active)

CCCNC(=O)N1[C@H](C#N)[C@H](c2ccc(C3=CCCCC3)cc2)[C@H]1CO
AC50 [29]: > 100 µM (inactive) | AC50 [30]: 0.113 µM (active) | AC50 [31]: 0.374 µM (active) | AC50 [32]: 0.424 µM (active) | AC50 [33]: 18.3 µM (active) | AC50 [34]: 0.163 µM (active)

COC1=C/C(=C/c2c(O)c(C#N)c3ccccn23)C=CC1=O
EC50 [35]: > 67.5 µM (inactive)

c1ccc(-c2nnc(SCc3ncco3)o2)cc1
AC50 [36]: > 52 µM (inactive)

COc1ccc(C[C@H]2CN3C(=NC[C@H]3Cc3ccccc3)N2CCNC(=O)CCC2CCCCC2)cc1
IC50 [37]: > 96.6 µM (inactive) | CC50 [38]: 23.8 µM (active) | IC50 [39]: > 20 µM (inactive)

Cc1ccc(OCCn2c(SCCO)nc3ccccc32)c(C(C)C)c1
AC50 [40]: 31.2 µM (active) | AC50 [41]: 50.8 µM (active)

CCC(=O)NCCCNc1nc2c(C)cccc2cc1C#N
AC50 [42]: > 52 µM (inactive) | EC50 [43]: > 120 µM (not active) | EC50 [44]: > 120 µM (not active) | EC50 [45]: 25.9 µM (active)

CN(C)S(=O)(=O)c1ccc(N2CCCC2)c(C(=O)Nc2nccs2)c1
IC50 [46]: 14.8 µM (inactive) | IC50 [47]: > 138 µM (inactive)

CNCCCCOc1ccccc1Cc1ccccc1 [BIFEMELANE]
IC50 [48]: > 33.3 µM (inactive)

CC(C)(C)OC(=O)N(CCc1ccccc1)Cc1ccccc1OCc1cccc(NC(=O)C2CCCC2)c1
AC50 [49]: > 30 µM (inactive)

Cc1cccc(C(=O)Nc2cccc(NC(=O)c3cccs3)c2)c1
IC50 [50]: 0.007 µM (active) | IC50 [51]: 0.23 µM (active)

COc1ccccc1NC(=O)c1ccc(=O)oc1
IC50 [52]: 30.2 µM (inactive) | IC50 [53]: 33.1 µM (inactive)

Reference: ChEMBL document CHEMBL1201862, “PubChem BioAssay data set” (2004)
